Reference: patent US12258422B2, “Cyclopeptide and method for preparing the same” (NATIONAL TSING HUA UNIVERSITY, priority 2020, dated 2025)
Values joined by “and” are separate entries in the source; they are usually repeats but may differ in a detail not shown here. Equal entries are not always repeated.

Key:
hs68 human fibroblasts [1] = assay: Procollagen Type I C-Peptide (PIP) EIA, induction of procollagen secretion; type: cell-based
Description: (§1) Type I collagen is the primary component of the skin dermis. Both the quantity and quality of extracellular collagen are primarily related to skin ageing. The present embodiment was examined, by using Procollagen Type I C-Peptide (PIP) EIA Kit, effects of induction of procollagen secretion and cytotoxicity in respect of hs68 human fibroblasts.

[2] = Cytotoxicity (cell viability) in anti-aging evaluation; type: cell-based, human; settings: human, hs68 human fibroblasts, (sample/control) × 100%
Description: as §1

hs68 human fibroblasts [3] = assay: as above; type: cell-based; settings: TGFβ; (sample/control) × 100%
Description: as §1

MMP-1 = MMP-1 inhibition test: TNF-α-induced MMP-1 level in skin fibroblasts, ELISA; type: cell-based, human; settings: for inhibition of MMP-1: compared to 3.3 μM of RA (set as 100%); for IC50: Hs68, TNF-α induced, calculated from inhibition rate vs concentration (FIG. 1, FIG. 2); for MMP-1 Conc.: TNF-α 20 ng/mL, Hs68
Protocol: Matrix Metalloproteinase-1 (MMP-1) is one of collagenases, and is involved in the degradation of the extracellular matrix (ECM). In details, fibroblasts result in the overexpression of MMP-1 after exposure to UV-containing sunlight, so that the ECM is then degraded by MMP-1.
To examine the effect of the cyclopeptide of the present disclosure, a series of MMP-1 inhibition test was conducted.
In this test, test compound and human fibroblasts were co-cultured, and cytokine tumor necrosis factor-α (TNF-α) was added as an inducer to induce the expression of MMP-1 to a high level. Then, the test compound was evaluated for the ability of reducing the MMP-1 level induced by TNF-α.
Test compound: cyclopeptide (III-3) of the present disclosure, in which Q is Cl.
Cell Line: Skin Fibroblast Hs68
First, the seeding of skin fibroblast Hs68 cells onto culture medium dish was conducted overnight, and then different concentrations (0.05 μM, 0.25 μM, 1.25 μM, 2.5 μM and 5 μM) of cyclopeptide (III-3) were added to the skin fibroblast cells for 6 hours, which was further incubated with TNF-α (20 ng/mL) for 42 hours.

Compound: N=C(N)NCCC[C@@H]1NC(=O)C2(CCCCC2)NC(=O)[C@@H](Cc2ccccc2)NC(=O)[C@H](CC(=O)O)NC(=O)CNC1=O [III-5]
- Procollagen Type I (hs68 human fibroblasts [1]; cyclopeptide 0.0008 μM): 235 ng/mL
- Procollagen Type I (hs68 human fibroblasts [1]; cyclopeptide 0.004 μM): 225 ng/mL
- Procollagen Type I (hs68 human fibroblasts [1]; cyclopeptide 0.02 μM): 220 ng/mL
- Procollagen Type I (hs68 human fibroblasts [1]; cyclopeptide 0.1 μM): 208 ng/mL
- Procollagen Type I (hs68 human fibroblasts [1]; cyclopeptide 0.25 μM): 208 ng/mL
- Procollagen Type I (hs68 human fibroblasts [1]; cyclopeptide 0.5 μM): 184 ng/mL
- viability at 0.0008 µM ([2]; cyclopeptide 0.0008 μM): 92%
- viability at 0.004 µM ([2]; cyclopeptide 0.004 μM): 97%
- viability at 0.02 µM ([2]; cyclopeptide 0.02 μM): 100%
- viability at 0.1 µM ([2]; cyclopeptide 0.1 μM): 97%
- viability at 0.25 µM ([2]; cyclopeptide 0.25 μM): 99%
- viability at 0.5 µM ([2]; cyclopeptide 0.5 μM): 100%

Compound: TGFβ [reference compound]
- Procollagen Type I (hs68 human fibroblasts [1]; TGFβ 0.83 μM): 320 ng/mL
- Cell viability (hs68 human fibroblasts [3]): 95%

Compound: CC(C)[C@H]1CC[C@H](C)CC12NC(=O)[C@@H](Cc1ccccc1)NC(=O)[C@H](CC(=O)O)NC(=O)CNC(=O)[C@H](CCCNC(=N)N)NC2=O (stereo partly drawn) [III-3]
- inhibition of MMP-1 (MMP-1; 0.05 μM): about 60%
- inhibition of MMP-1 (MMP-1; 0.25 μM): about 80%
- inhibition of MMP-1 (MMP-1; 1.25 μM): ~87%
- inhibition of MMP-1 (MMP-1; 2.5 μM): ~91%
- IC50 (MMP-1): 20 nM
- MMP-1 Conc. (MMP-1; cyclopeptide 0.05 μM): 337.8 pg/mL
- MMP-1 Conc. (MMP-1; cyclopeptide 0.25 μM): 244.2 pg/mL
- MMP-1 Conc. (MMP-1; cyclopeptide 1.25 μM): 212.7 pg/mL
- MMP-1 Conc. (MMP-1; cyclopeptide 2.5 μM): 194.2 pg/mL
- MMP-1 Conc. (MMP-1; cyclopeptide 5 μM): 168.6 pg/mL

Compound: CC1=C(/C=C/C(C)=C/C=C/C(C)=C/C(=O)O)C(C)(C)CCC1 [RA, retinoic acid, reference compound]
- MMP-1 Conc. (MMP-1; RA 3.3 μM (positive control)): 155.9 pg/mL and 271.3 pg/mL

Compound: N=C(N)NCCC[C@@H]1NC(=O)C2(CCNCC2)NC(=O)[C@@H](Cc2ccccc2)NC(=O)[C@H](CC(=O)O)NC(=O)CNC1=O [III-1]
- inhibition of MMP-1 (MMP-1; 0.05 μM): 12%
- inhibition of MMP-1 (MMP-1; 0.25 μM): 38%
- inhibition of MMP-1 (MMP-1; 1.25 μM): 90%
- IC50 (MMP-1): 700 nM
- MMP-1 Conc. (MMP-1; cyclopeptide 0.05 μM): 422.3 pg/mL
- MMP-1 Conc. (MMP-1; cyclopeptide 0.25 μM): 378.2 pg/mL
- MMP-1 Conc. (MMP-1; cyclopeptide 1.25 μM): 288.0 pg/mL
- MMP-1 Conc. (MMP-1; cyclopeptide 2.5 μM): 271.8 pg/mL
